This is an account of results in patent publication US11312726B2, “Thienodiazepine derivatives and application thereof” (priority 2017, dated 2022).

SMILES strings stand for the structures. Where two headings read alike, the source gives them in different places.

For data set [1], the system named is Human breast cancer MDA-MB-231_luc cell subcutaneous xenograft tumor. Kind of data set: In vivo pharmacodynamics, MDA-MB-231_luc subcutaneous xenograft tumor model. The conditions noted are these: 50 mg/kg PO BID × 21 days. As to the method:
In Vivo Pharmacodynamics Study of Compound 32 on Human Breast Cancer MDA-MB-231_luc Cell Subcutaneous Xenograft Tumor Model
Strain: BALB/c nude mouse
Week-age and weight: 6-8 weeks of age, 18-22 grams of body weight
Supplier: Shanghai Sippr-BK laboratory animal Co. Ltd.
3. Experiment Methods and Steps
Human breast cancer MDA-MB-231_luc cells were cultured in monolayer in vitro and the culture conditions were RPMI-1640 culture medium (supplier: Gibco; article number: 22400-089; manufacturing batch number: 4868546) with 10% fetal bovine serum, 100 U/ml penicillin and 100 μg/ml streptomycin. The culture was performed at 37° C. in 5% CO2. Conventional digestion treatment with pancreatin-EDTA for passage was carried out twice a week. When the cells were in the exponential growth phase, the cells were harvested, counted, and inoculated.
3.2 Tumor Cell Inoculation
0.2 mL of 10×10^6 MDA-MB-231_luc cells were subcutaneously inoculated into the right-back of each nude mouse (PBS:Matrigel=1:1). The grouping and administration was started when the average tumor volume reached 100-150 mm^3.
3.3 Tumor Measurement and Experiment Indices
The experiment index was to investigate whether tumor growth was inhibited, delayed or cured. Tumor diameter was measured twice a week with vernier calipers. The equation for calculating the tumor volume was V=0.5×a×b^2, wherein a and b represented the major and minor diameters of the tumor, respectively.
The tumor inhibition effect of the compound was evaluated by TGI (%) or relative tumor proliferation rate T/C (%). TGI (%) reflected the tumor growth inhibition rate.
Relative tumor proliferation rate T/C (%) was calculated according to the below equation: T/C %=TRTV/CRTV×100% (TRTV: RTV of the treatment group; CRTV: RTV of the negative control group). The relative tumor volume (RTV) was calculated according to the results of the tumor measurement. The calculation equation was RTV=Vt/V0, where V0 was the average tumor volume measured at the grouping and administration (i.e. d0), and Vt was the average tumor volume at the time of a certain measurement. TRTV and CRTV were obtained from the data on the same day.
At the end of the experiment, the tumor weight would be measured and the Tweight/Cweight percentage would be calculated. Tweight and Cweight represented the tumor weights of the administration group and the medium control group, respectively.
Statistical analysis included mean value and standard error (SEM) of the tumor volume of each group at each time point. […] The comparison between two groups was analyzed by T-test, and the comparison between three or more groups was analyzed by one-way ANOVA.

Data set [2] can be described thus: In vivo pharmacokinetics test in mice. The conditions noted are these: female Balb/c mice; for AUC(0-inf): read-out: Curve area (0-inf) AUC0-inf; for AUC(0-t): read-out: Curve area (0-t) AUC0-last; for half-life: read-out: Half life T1/2 (converted). As to the method: In Vivo Pharmacokinetics Test of Compound 32 in Mice
Female Balb/c mice were used as test animals. The compound 32 was administrated intravenously and intragastrically to mice, then the drug concentrations in the plasma at different time points were determined by the LC/MS/MS method. The in vivo pharmacokinetic behavior of compound 32 in mice was studied, and its pharmacokinetic characteristics were evaluated.
1.1 Experiment drug: Compound 32
1.2 Experiment animals: Sixteen healthy adult female Balb/c mice were divided into four groups according to the principle of similar body weight, with four mice in each group. The animals were purchased from Shanghai Lingchang BioTech Co., Ltd. of Shanghai SLAC Laboratory Animal Co., Ltd., and the animal production license number was SCXK (Shanghai) 2013-0018.
An appropriate amount of the sample was taken, 5% final volume of DMSO was added, and then 95% final volume of 20% HP-β-CD was added. The mixture was ultrasonically stirred to obtain a 0.5 mg/mL clear solution. After filtration, it was used for the intravenous administration.
An appropriate amount of the sample was taken, and dissolved in a 0.5% sodium carboxymethyl cellulose solution. The mixture was ultrasonically stirred to obtain a 0.5 mg/mL homogeneous suspension, which was used for the intragastric administration.
Eight female Balb/c mice were divided into two groups. After fasting overnight, the first group was administered intravenously with the administration volume of 2.5 mL/kg and the dosage of 1 mg/kg. […]
After the female Balb/c mice were intravenously administrated, 30 μL of blood was taken from different mice at each time point of 0.0833, 0.25, 0.5, 1, 2, 4, 8 and 24 hours, and placed in test tubes containing 2 μL of EDTA-K2; and after the female Balb/c mice were intragastrically administrated, 30 μL of blood was taken at an alternative location at each time point of 0.25, 0.5, 1, 2, 4, 8 and 24 hours, and placed in test tubes containing 2 μL of EDTA-K2. The tube was centrifuged at 3000 g for 15 minutes to separate the plasma, and the separated plasma was stored at −60° C. Animals could take food 2 hours after the administration.
The LC/MS/MS method was used to measure the content of the compound to be tested in the plasma after the intravenous and intragastric administration to the mice. The linear range of the method was 2.00-6000 nmol/L; the plasma samples were analyzed after the protein precipitation by acetonitrile treatment.

The mark [3] stands for this setting: mouse, plasma, po, Intragastric, 3 mg/kg (table; text says 2 mg/kg).
[4] abbreviates: mouse, plasma, Intravenous, 1 mg/kg.

In the case of `Cc1sc2c(c1C)C(c1ccc(Cl)cc1)=N[C@@H](CC(=O)Nc1ccc3c(c1)COC3=O)c1nnc(C)n1-2` [Compound 32], in data set [1], the “change in body weight of the animals” value is “no significant change” and the “tolerance of the animals” value is “well tolerated”. In addition, in data set [1] (21st day after administration), the “relative tumor proliferation rate T/C” value stood at 52.99% and the “tumor growth inhibition rate TGI” value is on record as 54.85%. Also, in data set [2], the “absorption (in words)” value is given as “good absorption” and the “pharmacokinetic clearance (in words)” value was “low pharmacokinetic clearance”. For the same molecule, in data set [2] (setting [3]), the AUC(0-inf) stood at 2.82 µM·h, the AUC(0-t) is 2.74 µM·h and the half-life is 1.47 h. For the same molecule, in data set [2] (mouse, plasma, po, Intragastric, 3 mg/kg (table; text says 2 mg/kg), read-out: Time to peak Tmax), the Tmax was found to be 1 h. The Vd in data set [2] (mouse, plasma, Intravenous, 1 mg/kg, read-out: Apparent distribution volume Vdss) was 1.19 L/kg. For the same molecule, the clearance in data set [2] (mouse, plasma, Intravenous, 1 mg/kg, read-out: Clearance rate Cl) amounted to 12.5 mL/min/kg. In data set [2] (setting [4]), the AUC(0-inf) is 2.5 µM·h, the AUC(0-t) worked out at 2.49 µM·h and the half-life is 1.09 h. For the same molecule, the Cmax in data set [2] (mouse, po, Intragastric, 3 mg/kg (table; text says 2 mg/kg), plasma, read-out: Drug concentration in blood Cmax) worked out at 930 nM.
